Data: PubChem BioAssay (NCI)
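Test compounds were applied to cells in 96-well plates for 48 hours at 5 doses. TGI is the concentration that stops growth completely.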

Columns and labels:
Experiment in all cases: NCI tumour cell line growth inhibition, 48 h
786-0 renal = system: 786-0 renal
ACHN renal = system: ACHN renal
CCRF-CEM leukemia = system: CCRF-CEM leukemia
HOP-92 NSCLC = system: HOP-92 NSCLC
HS 578T breast = system: HS 578T breast
LOX IMVI melanoma = system: LOX IMVI melanoma
MDA-MB-435 = system: MDA-MB-435
MDA-N = system: MDA-N
NCI-H226 lung = system: NCI-H226 lung
NCI-H23 lung = system: NCI-H23 lung
NCI-H460 lung = system: NCI-H460 lung
PC-3 prostate = system: PC-3 prostate
SF-268 CNS = system: SF-268 CNS
SNB-75 CNS = system: SNB-75 CNS
SR leukemia = system: SR leukemia
T-47D breast = system: T-47D breast
TK-10 renal = system: TK-10 renal
UACC-257 melanoma = system: UACC-257 melanoma
SK-MEL-28 melanoma = system: SK-MEL-28 melanoma

| Structure (SMILES) | TGI (786-0 renal) [µM] | TGI (ACHN renal) [µM] | TGI (CCRF-CEM leukemia) [µM] | TGI (HOP-92 NSCLC) [µM] | TGI (HS 578T breast) [µM] | TGI (LOX IMVI melanoma) [µM] | TGI (MDA-MB-435) [µM] | TGI (MDA-N) [µM] | TGI (NCI-H226 lung) [µM] | TGI (NCI-H23 lung) [µM] | TGI (NCI-H460 lung) [µM] | TGI (PC-3 prostate) [µM] | TGI (SF-268 CNS) [µM] | TGI (SNB-75 CNS) [µM] | TGI (SR leukemia) [µM] | TGI (T-47D breast) [µM] | TGI (TK-10 renal) [µM] | TGI (UACC-257 melanoma) [µM] | TGI (SK-MEL-28 melanoma) [µM] |
| --- | --- | --- | --- | --- | --- | --- | --- | --- | --- | --- | --- | --- | --- | --- | --- | --- | --- | --- | --- |
| CCOC(=O)/C=C/[C@H](O[Si](CC)(CC)CC)C(C)(C)C | > 100 | > 100 | 48.6 | > 100 | > 100 | 46.2 | > 100 | > 100 | > 100 | > 100 | > 100 | > 100 | > 100 | > 100 | 50.7 | > 100 | > 100 | > 100 | – |
| Nc1nc(Cl)c(N)c(NCC2(CO)CCCC2)n1 | > 100 | > 100 | > 100 | > 100 | > 100 | > 100 | > 100 | > 100 | > 100 | – | > 100 | > 100 | > 100 | > 100 | > 100 | 35.9 | > 100 | > 100 | > 100 |
| O=C1c2cccc3cccc(c23)C(=O)N1CCCNCCCNCCCCNCCCNCCCN1C(=O)c2cccc3cccc(c23)C1=O | 6.12 | 15.3 | 3.29 | 22 | 13.3 | > 38.1 | 10.1 | 6.83 | 28.6 | 16 | 14.1 | 13.4 | 12.9 | 12.5 | > 31.8 | 47 | 25 | 22.6 | 9 |
| O=C(NCCCl)N(O)C(=O)Nc1ccccc1 | > 100 | > 100 | > 100 | > 100 | > 100 | > 100 | > 100 | > 100 | > 100 | > 100 | > 100 | > 100 | > 100 | > 100 | > 100 | > 100 | > 100 | > 100 | – |
| O=C(/N=C/c1c(O)c2ccccc2oc1=O)Oc1ccccc1 | 85.7 | > 100 | > 100 | 79.9 | 32.1 | 80.9 | 66.5 | 86.7 | 44.9 | 68.5 | > 100 | > 100 | – | 68.4 | > 100 | 91.9 | 79.6 | 92.2 | – |
| CC1CC[C@@]2(OC1)OC1C[C@H]3[C@@H]4CC[C@H]5CC(OC6OC(CO)C(O)C(OC7OC(CO)C(OC8OC(CO)C(O)C(OC9OC(CO)C(O)C(O)C9O)C8OC8OC(CO)C(O)C(O)C8O)C(O)C7O)C6O)[C@H](O)CC5(C)[C@H]4CCC3(C)C1[C@@H]2C (stereo partly drawn) | 6.76 | 7.4 | 10.2 | 12.1 | 6.16 | 9.05 | 14.6 | 13.8 | 13.3 | 12.7 | 15.5 | 6.66 | 11.3 | 10.9 | 2.98 | 4.58 | 11.8 | 16.9 | 14.5 |
| CC(=O)Oc1ccc2c(c1)c1c(=O)oc(C)nc1n2Cc1ccccc1 | > 100 | > 100 | > 100 | > 100 | > 100 | > 100 | 99.4 | > 88.1 | > 69.7 | > 100 | > 100 | > 100 | > 100 | > 87.7 | > 100 | > 100 | > 91.2 | > 100 | > 100 |
| CCN1CCC(O)(/C=C/c2ccc(C)cc2)C(C(=O)/C=C/c2ccc(C)cc2)C1 (stereo not drawn) | 4.29 | 14.7 | 5.62 | 19.6 | 7.55 | 2.59 | 8.75 | 10.3 | 29 | 18.5 | 16.7 | 18.1 | 24.6 | 22 | 6.84 | 9.89 | 14.4 | 25.5 | 14.8 |
| CC1C[C@]2(C)C(=NCCN)Nc3ccccc3[C@@H]2N(C)c2ccccc21 (stereo partly drawn) | 24.6 | 29.9 | 35 | 9.49 | 38.2 | 28.2 | 22.7 | 27.8 | 30.2 | 31.4 | 24 | 26.6 | 30.4 | 13.2 | 8.73 | 39.2 | 21.5 | 14.8 | 24.3 |
| CN1C(=O)c2ccccc2OC12C=Cc1ccc(O)cc1O2 (stereo not drawn) | > 100 | > 100 | 72.8 | 80.9 | 84.3 | 26.8 | 85.3 | > 100 | 92.8 | > 100 | 61.8 | 59.2 | > 100 | 80.1 | 27.4 | 52.6 | > 100 | 43.6 | > 100 |
| COC(=O)C1(C(=O)OC)C/C(C)=C(/C)SCCCS1 | > 100 | > 100 | > 100 | > 100 | > 100 | > 100 | > 100 | > 100 | > 100 | > 100 | > 100 | > 100 | > 100 | > 100 | > 100 | > 100 | > 100 | > 100 | > 100 |
| Cc1cn(C2CC(O)C(CO[Si](C)(C)C(C)(C)C)OC2OC(C)C)c(=O)[nH]c1=O (stereo not drawn) | 31.6 | > 100 | 61.1 | 79.4 | > 100 | 32.5 | > 100 | > 100 | > 100 | > 100 | > 100 | > 100 | > 100 | > 100 | 62.4 | > 100 | > 100 | > 100 | > 100 |
